# Results taken from patent US10393748B2, “Method for predicting efficacy of c-Met inhibitor” (Samsung Electronics Co., Ltd., priority 2014, dated 2019).
# Columns and labels:
# Type in all cases: cell-based, human
# EBC-1 = assay: Cell proliferation, Cell-Titer Glo (CTG) assay, EBC-1; settings: inhibitor concentration of 10 nM or more, 72 hours
# Experimental: (§1) The 4 cell lines were seeded on a 96 well plate at the same amount (1×10^4 cells/well) and cultured for 24 hours (media: RPMI (Gibco, Invitrogen), culture conditions: 37° C., 5% CO2). The cultured cells were treated with representative c-Met inhibitor, crizotinib (Selleck chemical) and PHA665752((R,Z)-5-(2,6-dichlorobenzylsulfonyl)-3-((3,5-dimethyl-4-(2-(pyrrolidin-1-ylmethyl)pyrrolidine-1-carbonyl)-1H-pyrrol-2-yl)methylene)indolin-2-one), respectively. For comparison, human control IgG (chrompure human IgG (009-000-003, JACKSON IMMUNORESEARCH LABS INC.)) as a control and anti-c-Met antibody L3-1Y/IgG2 (Reference Example) were used respectively. Each of the inhibitors (or antibody) was treated at 10-fold serial diluted concentrations from 1000 nM to 0.01 nM. 72 hours after the treatment, the level of IL-8 in cell culture of each treatment group was assayed by Cytometric Bead Array (CBA) method using BD Cytometric Bead Array kit (see Example 1.1.2). In addition, in order to verify the anticancer efficacy of the c-Met inhibitors, the cell proliferation (%) was measured at 72 hours after c-Met inhibitor treatment through Cell-Titer Glo (CTG) assay.
# Hs746T = assay: Cell proliferation, Cell-Titer Glo (CTG) assay, Hs746T; settings: inhibitor concentration of 10 nM or more, 72 hours
# Experimental: as §1
# HT29 = assay: Cell proliferation, Cell-Titer Glo (CTG) assay, HT29; settings: 0.01 to 1000 nM, 72 hours
# Experimental: as §1
# Lovo = assay: Cell proliferation, Cell-Titer Glo (CTG) assay, Lovo; settings: 0.01 to 1000 nM, 72 hours
# Experimental: as §1
SMILES,cell proliferation (%) (EBC-1),cell proliferation (%) (Hs746T),cell proliferation (%) (HT29),cell proliferation (%) (Lovo)
"C[C@@H](Oc1cc(-c2cnn(C3CCNCC3)c2)cnc1N)c1c(Cl)ccc(F)c1Cl [crizotinib, 3-((R)-1-(2,6-dichloro-3-fluorophenyl)ethoxy)-5-(1-(piperidin-4-yl)-1H-pyrazol-4-yl)pyridin-2-amine]",significantly inhibited,significantly inhibited,no significant decrease,no significant decrease
"Cc1[nH]c(/C=C2\C(=O)Nc3ccc(S(=O)(=O)Cc4c(Cl)cccc4Cl)cc32)c(C)c1C(=O)N1CCC[C@@H]1CN1CCCC1 [PHA665752, (R,Z)-5-(2,6-dichlorobenzylsulfonyl)-3-((3,5-dimethyl-4-(2-(pyrrolidin-1-ylmethyl)pyrrolidine-1-carbonyl)-1H-pyrrol-2-yl)methylene)indolin-2-one]",significantly inhibited,significantly inhibited,no significant decrease,no significant decrease
